Test results as given in the NIST ThermoML archive (doi:10.1016/j.jct.2016.10.047).

Experiment: heat capacity at constant pressure per volume; xn = mol fraction of the nth substance listed
Conditions: 102.6 kPa, Liquid, DSC, x1 = 0.08

CCCCCCCC[n+]1ccn(C)c1.F[P-](F)(F)(F)(F)F [1-octyl-3-methylimidazolium hexafluorophosphate] + CC(C)O
Conditions | heat capacity [J/K/m3]
306.1 K | 2358000
306.31 K | 2360000
306.53 K | 2376000
306.74 K | 2371000
306.95 K | 2378000
307.16 K | 2393000
307.38 K | 2371000
307.59 K | 2387000
307.8 K | 2406000
308.01 K | 2407000
308.23 K | 2403000
308.44 K | 2417000
308.65 K | 2426000
308.86 K | 2437000
309.07 K | 2429000
309.29 K | 2462000
309.5 K | 2458000
309.71 K | 2492000
309.92 K | 2498000
310.14 K | 2474000
310.35 K | 2486000
310.56 K | 2543000
310.77 K | 2578000
310.99 K | 2348000
311.2 K | 2313000
311.41 K | 2300000
311.62 K | 2301000
311.83 K | 2289000
312.05 K | 2291000
312.26 K | 2283000
312.47 K | 2282000
312.68 K | 2283000
312.89 K | 2268000
313.11 K | 2279000
313.32 K | 2266000
313.53 K | 2277000
313.74 K | 2270000
313.96 K | 2249000
314.17 K | 2265000
314.38 K | 2249000
314.59 K | 2263000
314.81 K | 2253000
315.02 K | 2254000
315.23 K | 2257000
315.44 K | 2255000
315.65 K | 2262000
315.87 K | 2264000
316.08 K | 2265000
316.29 K | 2248000
316.5 K | 2255000
316.72 K | 2243000
316.93 K | 2245000
317.14 K | 2256000
317.35 K | 2241000
317.57 K | 2246000
317.78 K | 2253000
317.99 K | 2242000
318.2 K | 2249000
318.42 K | 2245000
318.63 K | 2234000
